How the values were obtained:
[1] = tested on: YAP1 overexpression in U2OS cells; experiment: Cell Painting morphological profile matching to YAP1/TAZ overexpression signature; assay type: cell-based, human
Excerpt: (§1) Of these, analysis of the 220 constructs that were most closely representative of the annotated full-length transcripts was prioritized. […] Not all genes are likely to impact cellular morphology given the limitation of the experiment; using a single cell line at a single time point under a single set of conditions and stained with six fluorescent labels.
FIG. 2 provides an example characterization of matching the morphological signature of a gene query to the signature(s) of compounds in a library. Connections which show both positive and negative large correlations are considered as matches.
(§2) This standardization was done plate wise, based on the mean and standard deviation of the controls at profile level for the compound dataset. […] The signatures were then obtained by averaging the replicate profiles feature-wise. Pearson correlation was used on the aligned signatures of a gene and compound to score their connection.

[2] = tested on: TRAF2 overexpression in U2OS cells; experiment: Cell Painting morphological profile matching to TRAF2 overexpression; assay type: cell-based, human
Excerpt: as §1, §2

[3] = tested on: U2OS cells; experiment: Cell count in U2OS Cell Painting images; assay type: cell-based, human
Excerpt: as §1, §2

[4] = tested on: H9 human pluripotent stem cells; experiment: qPCR of YAP1, CTGF and CYR61 in H9 hPSCs; assay type: cell-based; settings: 24 hrs
Method: H9 hPSCs (WiCell) were maintained on vitronectin (Thermo Fisher)-coated plates in Essential 8 (E8) medium. The cells were routinely passaged using 0.5 mM EDTA and treated with 5 μM Y-27632 dihydrochloride (Tocris) on the first day. For testing the effects of the small molecules, H9 hPSCs were seeded at 50K cells/cm^2 on vitronectin-coated plates in E8 medium supplemented with 5 μM Y-27632 dihydrochloride (day 0). On day 1, the medium was switched to E8 medium. On day 2, the medium was switched to E8 medium supplemented with the small molecules. Following overnight incubation, the cells were collected for subsequent analysis on day 3.
The RNA was extracted using TRIzol (Life Technologies) and Direct-zol™ RNA MiniPrep kit (Zymo Research) as per manufacturer instructions. The RNA was reverse transcribed using iScript cDNA synthesis kit (Bio-Rad). The qPCR was performed on CFX Connect (Bio-Rad) using iTaq Universal SYBR Green Supermix (Bio-Rad). GAPDH was used as a reference gene for normalization. The relative gene expression levels were determined using the ddCt method.

[5] = tested on: KP230 cells; experiment: Proliferation assay, KP230 cells; assay type: cell-based, mouse; settings: 10 μM daily for 72 hours
Excerpt: (§3) YAP1 cell culture and treatments: Eisinger lab: Murine KP230 cells, a Yap1-dependent cancer cell line, were derived from a tumor from the KP mouse model (Kras^G12/D; Trp53^f/fl), as described in Eisinger-Mathason, T. S. K. et al., Proc. Natl. Acad. Sci. U.S.A 112 (2015): E3402-11, which is hereby incorporated by reference in its entirety. STS-109 UPS cells were derived from a human UPS tumor and validated by Rebecca Gladdy, MD (Sinai Health System, Toronto, Ontario, Canada). TC32 cells were a gift from Patrick Grohar, MD, PhD (Children's Hospital of Philadelphia). HT-1080, HCT-116, and HEK293T cells were purchased from ATCC. KP230, HT-1080, and HEK-293T cells were grown in DMEM with 10% FBS, 1% L-glutamine, and 1% penicillin/streptomycin (P/S). STS-109 cells were cultured in DMEM with 20% FBS, 1% L-glutamine, and 1% P/S. TC32 cells were grown in RPMI with 10% FBS, 1% L-glutamine, and 1% P/S. HCT-116 cells were cultured in McCoy's 5A medium with 10% FBS and 1% P/S. All cells were confirmed to be negative for mycoplasma contamination and were maintained in an incubator at 37C with 5% CO2. For experimental purposes, cells were cultured for up to 20 passages before being discarded, and were grown to approximately 50% confluence to circumvent the effects of high cell density on Yap1 expression and activity. All cell lines in the Eisinger laboratory were treated with 10 μM of each inhibitor or an equivalent volume of DMSO every 24 hours for 3 days, except for STS-109 cells, which were treated daily for 8 days.
(§4) NB4A treatment: Cells were treated with 10 μM of each inhibitor or an equivalent volume of DMSO every 24 hours for 3-8 days, and counted with a hemocytometer with trypan blue exclusion daily (KP230, HT-1080, TC32, HCT-116), or every 2 days (STS-109).

[6] = tested on: KP230 cells; experiment: Percent viability of KP230 cells; assay type: cell-based, mouse; settings: 10 μM daily for 72 hours
Excerpt: as §3, with “For experimental purposes, cells were cultured for up to 20 passages before being discarded, and were grown to approximately 50% confluence to circumvent the effects of high cell density on Yap1 expression and activity. All cell lines in the Eisinger laboratory were treated with 10 μM of each inhibitor or an equivalent volume of DMSO every 24 hours for 3 days, except for STS-109 cells, which were treated daily for 8 days.” left out
as §4

[7] = tested on: HEK293, HepG2, A549 cells; settings: per PubChem, read-out: AC50, inhibition of cell proliferation; cited from earlier work
[8] = molecular target: PAX8 (Homo sapiens, UniProt Q06710); settings: per PubChem; cited from earlier work
Chain of PAX8 (Q06710 whole entry, species assumed): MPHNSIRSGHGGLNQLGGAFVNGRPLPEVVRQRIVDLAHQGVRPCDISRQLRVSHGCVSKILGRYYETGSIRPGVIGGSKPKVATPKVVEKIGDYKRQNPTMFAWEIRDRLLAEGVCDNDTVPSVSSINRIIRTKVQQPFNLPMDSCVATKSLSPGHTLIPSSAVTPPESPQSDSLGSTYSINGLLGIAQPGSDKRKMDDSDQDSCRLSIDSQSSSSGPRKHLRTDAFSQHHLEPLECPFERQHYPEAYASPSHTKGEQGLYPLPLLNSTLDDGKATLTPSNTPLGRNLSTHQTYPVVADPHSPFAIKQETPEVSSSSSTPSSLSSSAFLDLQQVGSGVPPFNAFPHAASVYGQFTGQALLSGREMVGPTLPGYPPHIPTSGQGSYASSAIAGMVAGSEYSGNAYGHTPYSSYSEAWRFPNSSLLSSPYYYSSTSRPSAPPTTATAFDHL

[9] = Pearson correlation of Cell Painting signatures, U2OS cells

SMILES: CO[C@@H]1CN(C)C(=O)c2ccc(NC(=O)c3ccc(-c4ccccc4)cc3)cc2OC[C@H](C)NC[C@@H]1C [BRD-K28862419, N-[(4S,7S,8S)-8-methoxy-4,7,10-trimethyl-11-oxo-2-oxa-5,10-diazabicyclo[10.4.0]hexadeca-1(12),13,15-trien-15-yl]-4-phenylbenzamide]
- Cell Painting profile correlation with YAP1 overexpression [1]: −0.43
- Corr. to YAP1 cluster [1, 9]: −0.4317
- Cell Painting profile correlation with TRAF2 overexpression [2]: 0.41
- Corr. to TRAF2 [2, 9]: 0.4068
- proliferation in the U2OS Cell Painting images [3]: −2.0 st dev
- Avg. Cell Count z-score ([3]; U2OS Cell Painting): −2.044
- mRNA levels of hippo pathway members (YAP1, CTGF, CYR61) [4]: did not dramatically impact
- proliferation [5]: inhibited KP230 cell proliferation
- cell viability [6]: modestly yet significantly reduced
- AC50 [7]: 5 to 18 µM
- PAX8 inhibition [8]: inhibits PAX8

Source: patent publication US20230255970A1, “COMPOSITIONS AND METHODS FOR TREATING PROLIFERATIVE DISEASES” (The Broad Institute, Inc., priority 2020, published 2023)
